The nature of series [1]: Accelerated storage stability: degradation of active ingredients after 14 days at 54° C. It is filed as physicochemical. As to the method:
In some embodiments, the percentage of degradation is calculated based on the percentage of cartap and/or emamectin by weight based on the total weight of the stable composition before and after storage. […]
In addition, two different levels of water content were measured, content (a) less than 0.2% and b) from more than 0.3% to less than 0.5%.
In example 1, the concentrations of the cartap and emamectin were measured after 14 days storage at 54° C.
For GR composition, it was observed that the failed batches are associated with the bulging of the pouch under accelerated storage. For study of accelerated storage at 54° C. for 14 days, the sample is kept in a sealed tri-laminated aluminum pouch and after storage, the visual observations are done to observe the pouch bulging, if any. Comparative rating was done, where more number of stars denotes more bulging. From table 5, it is clear that, for the storage stability samples of pH 5.1, 4.7, 4.1 and 3.5 (for both the processes) samples with water content of less or equal to 0.2% water content by weight based on the total weight of the stable composition, have not shown any bulging.

The conditions of series [2]: cited from earlier work.
Where [3] appears, read: pH (1% Aq.) 3.5, water content <0.2 % w/w.
Where [4] appears, read: pH (1% Aq.) 3.5, water content >0.3 to <0.5 % w/w.
[5] abbreviates: pH (1% Aq.) 4.1, water content <0.2 % w/w.
Where [6] appears, read: pH (1% Aq.) 4.1, water content >0.3 to <0.5 % w/w.
The mark [7] stands for this setting: pH (1% Aq.) 4.7, water content <0.2 % w/w.
The mark [8] stands for this setting: pH (1% Aq.) 4.7, water content >0.3 to <0.5 % w/w.
Where [9] appears, read: pH (1% Aq.) 5.1, water content <0.2 % w/w.
Where [10] appears, read: pH (1% Aq.) 5.1, water content >0.3 to <0.5 % w/w.
The mark [11] stands for this setting: pH (1% Aq.) 5.5, water content <0.2 % w/w.
Where [12] appears, read: pH (1% Aq.) 5.5, water content >0.3 to <0.5 % w/w.
Where [13] appears, read: pH (1% Aq.) 5.8, water content <0.2 % w/w.
Where [14] appears, read: pH (1% Aq.) 5.8, water content >0.3 to <0.5 % w/w.

Structures can show the parent of a compound that is named as a salt.

On to `CN(C)C(CSC(N)=O)CSC(N)=O` [Cartap Hydrochloride, S,S′-(2-dimethylaminotrimethylene) bis(thiocarbamate)], for which the “% Cartap Hydrochloride degradation (14 days storage, 54° C.) Process 1” value was 0% in series [1] (setting [3]); 0% in series [1] (setting [4]); 2.46% in series [1] (setting [7]); 3.63% in series [1] (setting [8]); 2.40% in series [1] (setting [9]); 4.05% in series [1] (setting [10]). Further, the “% Cartap Hydrochloride degradation (14 days storage, 54° C.) Process 1” value is 0.00% in series [1] (setting [11]), 3.30% in series [1] (setting [12]), 3.16% in series [1] (setting [13]) and 4.94% in series [1] (setting [14]). In addition, the “% Cartap Hydrochloride degradation (14 days storage, 54° C.) Process 2” value in series [1] (setting [3]) amounted to 2.27%; in series [1] (setting [4]), 2.80%; in series [1] (setting [5]) it was 0.23%; in series [1] (setting [6]) it was 2.80%; in series [1] (setting [9]) it was 1.67%; in series [1] (setting [10]) it was 1.22%. Besides, the “% Cartap Hydrochloride degradation (14 days storage, 54° C.) Process 2” value in series [1] (setting [13]) is listed as 1.09%; in series [1] (setting [14]), 6.48%.

Consider “(4″R)-5-O-demethyl-4″-deoxy-4″-(methylamino)avermectin [Emamectin]”, for which the decomposition of emamectin result in series [2] (highly unstable, decomposes rapidly) is given as “about 25%”. Further, the stability to hydrolysis entry in series [2] (pH 5, 6, 7 and 8 (25° C.)) is “stable to hydrolysis”. For the same compound, the “% Emamectin degradation (14 Days Storage, 54° C.) Process 1” value in series [1] (setting [3]) was 1.9%; in series [1] (setting [4]) it was 13%; in series [1] (setting [5]) it was 0.95%; in series [1] (setting [6]), 14.45%; in series [1] (setting [7]), 6.14%; in series [1] (setting [8]), 17.1%. The “% Emamectin degradation (14 Days Storage, 54° C.) Process 1” value in series [1] (setting [9]) was found to be 7.98%; in series [1] (setting [10]) it was 12.12%; in series [1] (setting [11]), 8.33%; in series [1] (setting [12]), 40.96%; in series [1] (setting [13]) it was 16.7%; in series [1] (setting [14]), 70.74%. In addition, the “% Emamectin degradation (14 Days Storage, 54° C.) Process 2” value worked out at 4.49% in series [1] (setting [3]); 13.97% in series [1] (setting [4]); 2.3% in series [1] (setting [5]); 5.02% in series [1] (setting [6]); 2.38% in series [1] (setting [7]); 7.31% in series [1] (setting [8]). For the same compound, the “% Emamectin degradation (14 Days Storage, 54° C.) Process 2” value in series [1] (setting [9]) was 4.49%; in series [1] (setting [10]), 27.2%; in series [1] (setting [11]), 6.89%; in series [1] (setting [12]) it was 24.63%; in series [1] (setting [13]), 20.2%; in series [1] (setting [14]), 26.59%.
